Laboratory results reported in US20190030018A1 (Celgene Corporation, priority 2017, published 2019).
Where two headings read alike, the source gives them in different places.

Assays:
Test in all cases: In vitro combination studies, CellTitre-Glo cell viability
HNT-34 = system: HNT-34
HL-60 = system: HL-60
MOLM-13 = system: MOLM-13
F-36-P = system: F-36-P
NOMO-1 = system: NOMO-1
MV-4-11 = system: MV-4-11
OCI-AML-2 = system: OCI-AML-2
KG-1 = system: KG-1
OCT-AML-3 = system: OCT-AML-3
ML-2 = system: ML-2
[1] = HNT-34, in combination with Compound 1
[2] = HL-60, in combination with Compound 1
[3] = MOLM-13, in combination with Compound 1
[4] = F-36-P, in combination with Compound 1
[5] = NOMO-1, in combination with Compound 1
[6] = MV-4-11, in combination with Compound 1
[7] = OCI-AML-2, in combination with Compound 1
[8] = KG-1, in combination with Compound 1
[9] = OCI-AML-3, in combination with Compound 1
[10] = ML-2, in combination with Compound 1

SMILES	Synergy analysis for combinations with Compound 1 (HNT-34; [1])	Synergy analysis for combinations with Compound 1 (HL-60; [2])	Synergy analysis for combinations with Compound 1 (MOLM-13; [3])	Synergy analysis for combinations with Compound 1 (F-36-P; [4])	Synergy analysis for combinations with Compound 1 (NOMO-1; [5])	Synergy analysis for combinations with Compound 1 (MV-4-11; [6])	Synergy analysis for combinations with Compound 1 (OCI-AML-2; [7])	Synergy analysis for combinations with Compound 1 (KG-1; [8])	Synergy analysis for combinations with Compound 1 (OCT-AML-3; [9])	Synergy analysis for combinations with Compound 1 (ML-2; [10])	Synergy analysis for combinations with Compound 1 (HNT-34)	Synergy analysis for combinations with Compound 1 (HL-60)	Synergy analysis for combinations with Compound 1 (MOLM-13)	Synergy analysis for combinations with Compound 1 (F-36-P)	Synergy analysis for combinations with Compound 1 (NOMO-1)	Synergy analysis for combinations with Compound 1 (MV-4-11)	Synergy analysis for combinations with Compound 1 (OCI-AML-2)	Synergy analysis for combinations with Compound 1 (KG-1)	Synergy analysis for combinations with Compound 1 (OCT-AML-3)	Synergy analysis for combinations with Compound 1 (ML-2)
COc1ccc(-c2ccc3c(N4CCOC[C@@H]4C)nc(N4CCOC[C@@H]4C)nc3n2)cc1CO [AZD8055]	No	No	Yes	Yes	Yes	No	Yes	No	Yes	No										
CO[C@H]1/C=C\C=C(/C)C(=O)NC2=CC(=O)C(NCCN(C)C)=C(C[C@@H](C)C[C@H](OC)[C@H](O)[C@@H](C)/C=C(\C)[C@@H]1OC(N)=O)C2=O [Alvespimycin]	No	No	No	No	No	Yes	Yes	No	No	No										
CCN1C(=O)CNc2ncc(-c3ccc(-c4nc[nH]n4)nc3C)nc21 [CC-115, 1-ethyl-7-(2-methyl-6-(1H-1,2,4-triazol-3-yl)pyridin-3-yl)-3,4-dihydropyrazino[2,3-b]pyrazin-2(1H)-one, reference compound]	Yes	No	Yes	Yes	Yes	Yes	Yes	No	Yes	Yes										
CO[C@H]1CC[C@H](N2C(=O)CNc3ncc(-c4ccc(C(C)(C)O)nc4)nc32)CC1 [CC-223, 7-(6-(2-hydroxypropan-2-yl)pyridin-3-yl)-1-((trans)-4-methoxycyclohexyl)-3,4-dihydropyrazino[2,3-b]pyrazin-2(1H)-one, reference compound]	No	No	Yes	Yes	Yes	Yes	Yes	No	Yes	Yes										
CC(C)C[C@H](NC(=O)[C@@H](NC(=O)c1cccc(-c2ccccc2)n1)[C@@H](C)O)B(O)O [CEP-18770]	No	No	No	No	No	No	No	No	No	No										
CC(C)C[C@H](NC(=O)[C@H](CCc1ccccc1)NC(=O)CN1CCOCC1)C(=O)N[C@@H](Cc1ccccc1)C(=O)N[C@@H](CC(C)C)C(=O)[C@@]1(C)CO1 [Carfilzomib]	No	No	No	No	No	No	No	No	No	No										
Cn1cc(-c2cc(S(C)(=O)=O)ccc2OCC2CC2)c2ccccc2c1=O [Compound A, 4-[2-(cyclopropylmethoxy)-5-(methanesulfonyl)phenyl]-2-methylisoquinolin-1(2H)-one, reference compound]	No	No	Yes	Yes	Yes	No	Yes	No	Yes	Yes										
COc1ccc(-c2c(-c3ccc(C#N)c(F)c3)nc(N3CCC(N)CC3)n(C)c2=O)cc1F [Compound B, 4-[2-(4-amino-piperidin-1-yl)-5-(3-fluoro-4-methoxy-phenyl)-1-methyl-6-oxo-1,6-dihydropyrimidin-4-yl]-2-fluoro-benzonitrile, reference compound]	No	No	Yes	Yes	No	No	No	No	No	No										
C[C@@H]1C[C@H]2[C@@H]3CCC4=CC(=O)C=C[C@]4(C)[C@@]3(F)[C@@H](O)C[C@]2(C)[C@@]1(O)C(=O)CO [Dexamethason]	No	No	No	No	Yes	No	No	No	No	No										
CC(C)C[C@H](NC(=O)CNC(=O)c1cc(Cl)ccc1Cl)B(O)O [Ixazomib]	No	No	No	No	No	No	No	No	No	No										
CC(C)n1nc(-c2ccc3oc(N)nc3c2)c2c(N)ncnc21 [MLN-0128]	No	No	Yes	Yes	No	No	Yes	No	No	No										
CN(C)C(=N)N=C(N)N [Metformin]	No	No	No	No	No	No	No	No	No	No										
C[C@@]12OC(=O)[C@]1([C@@H](O)[C@@H]1C=CCCC1)NC(=O)[C@@H]2CCCl [NPI-0052]											No	No	No	No	No	No	No	No	No	No
COC(=O)C[C@](O)(CCCC(C)(C)O)C(=O)O[C@@H]1C(OC)=C[C@]23CCCN2CCc2cc4c(cc2[C@H]13)OCO4 [Omacetaxine]	No	No	No	No	No	No	No	No	No	No										
